From patent US12202816B2 (CALLIDITAS THERAPEUTICS SUISSE SA, priority 2018, dated 2025)

target: hNOX enzymes; assay: ROS production measurement on hNOX membranes (Amplex Red fluorescence assay, assay 1); type: biochemical, human; conditions: membranes from CHO or HEK cells overexpressing hNox enzymes; Nox isoform not stated; non linear regression; read-out: Nox inhibitory constant Ki
Description: Reactive oxygen species (ROS) production generated by hNOX enzymes was measured by fluorescence in both cellular and membrane-based assays using the Amplex® Red reagent. In the presence of horseradish peroxidase (HRP), the Amplex® Red reagent (10-acetyl-3,7-dihydroxyphenoxazine, AR), which is a colorless and nonfluorescent derivative of dihydroresorufin, reacts with H2O2 with a 1:1 stoichiometry to produce highly fluorescent resorufin at an excitation and emission wavelengths of 544 nm and 590 nm, respectively.
Membranes from CHO or HEK cells overexpressing hNox enzymes were prepared as previously described (Palicz et al., 2001, J. Biol. Chem, 76, 3090). After resuspension in sonication buffer (11% sucrose, 120 mM NaCl, 1 mM EGTA in PBS, pH 7.4), cells were broken by sonication and centrifuged (200 g, 10 min). The supernatant was layered onto a 17/40% (w/v) discontinuous sucrose gradient and centrifuged (150,000 g for 30 min). Membrane fractions were collected from the 17/40% interface, aliquoted in 10 μl samples and were stored at −80° C. Protein concentration was determined with Bradford reagent. Flavin Adenine Dinucleotide (FAD) (catalog #F6625-500MG), MgCl2 (catalog #M8266-100G), Phosphatidic Acid (PA) (catalog #P3591-50MG) were purchased from Sigma-Aldrich. Horseradish peroxidase (HRP) (catalog #10108090001) was purchased from Roche. NADPH (catalog #A1395, 0500) was purchased from Applichem. Amplex red (AR) (catalog #A22177) was purchased from Invitrogen. 96 well polypropylene and black plates were purchased from Milian (catalog #055529 and #055218, respectively). FLUOstar OPTIMA microplate reader was supplied by BMG Labtech (Germany). Zephyr® Compact Liquid Handling Workstation was supplied by PerkinElmer (Germany).
Assay 1: ROS Production Measurement on hNOX Membranes
All Solutions were placed on ice and protected from light. The final concentration in the 1× hNOX membrane fluorescent assay buffer were PBS pH7, 6 μM FAD, 15 μM PA, 1 mM MgCl2, 12.5 μM AR, 0.02 u/ml, 125 ng membranes, 1.5 μg of cofactors and 30 μM NADPH. The NADPH was dissolved in water at a concentration of 12 mM and was transferred in a metal transfer plate kept at 4° C. The NADPH was added to the assay plate to initiate the reaction just before the measurement.
Serial dilution (1:3, 10 serial dilution) of the compounds was performed in 100% DMSO in 96 well polypropylene plate—Row B—H Column 1-10, Row A, Column 1-10 contained reference compound. Starting concentration was 10^−2 M (10 mM). Final concentration in assay was 10^−4 M (100 μM). Compounds were diluted twice in PBS buffer by transferring 30 μl/well of PBS into 30 μl/well compounds sample in DMSO using Zephyr® Compact Liquid Handling Workstation. Control wells-columns 1 and 12-contained 60 μl DMSO in 50% PBS pH7.
Reaction mixture is dispensed using Zephyr® Compact Liquid Handling Workstation. 90 μl of mix with membrane were dispensed into 96 well black plates—Column 2-11, Column 1 Row A-D, Column 12 Row E-H. 90 μl of control mix were dispensed into assay plate—Column 1 Row E-H, Column 12 Row A-D, which are wells for measuring background signal. 2 μl of compounds were dispensed into each well of assay plate using Zephyr® Compact Liquid Handling Workstation. The reaction mixture with compounds was incubated in assay plates for 20 min at 37° C. in a Titramax microplate incubator with gentle agitation. 10 μl of NADPH is dispensed to the assay plate. Fluorescence reading was recorded with the FLUOstar OPTIMA microplate reader for 10 min at 37° C. (8 cycles, 1 cycle duration 55 sec).
The Table 14 below summarizes the inhibition of NOX activity as measured by the above described assay 1 and expressed by their inhibitory constant calculated by non linear regression analysis using GraphPad Prism Software (GraphPad Software Co., San Diego, CA): […]

Row | Structure (SMILES) | Ki [nM]
1 | COc1cc(-c2ccc3[nH]c(-c4ccnc(C)c4)cc3c2)ccn1 [Example 1, 5-(2-methoxypyridin-4-yl)-2-(2-methylpyridin-4-yl)-1H-indole] | 486
2 | Cc1cc(-c2cc3cc(-c4ccnc(N)c4)ccc3[nH]2)ccn1 [Example 5, 4-(2-(2-methylpyridin-4-yl)-1H-indol-5-yl)pyridin-2-amine] | 348
3 | Cc1cc(-c2cc3cc(-c4cncc(F)c4)ccc3[nH]2)ccn1 [Example 6, 5-(5-fluoropyridin-3-yl)-2-(2-methylpyridin-4-yl)-1H-indole] | 750
4 | Cc1cc(-c2cc3cc(-c4cncc(N(C)C)c4)ccc3[nH]2)ccn1 [Example 9, N,N-dimethyl-5-(2-(2-methylpyridin-4-yl)-1H-indol-5-yl)pyridin-3-amine] | 805
5 | Cc1cc(-c2cc3cc(-c4ccc5[nH]c(C)nc5c4)ccc3[nH]2)ccn1 [Example 12, 2-methyl-5-(2-(2-methylpyridin-4-yl)-1H-indol-5-yl)-1H-benzo[d]imidazole] | 590
6 | COc1cncc(-c2ccc3[nH]c(-c4ccnc(N5CCC5)c4)cc3c2)c1 [Example 13, 2-(2-(azetidin-1-yl)pyridin-4-yl)-5-(5-methoxypyridin-3-yl)-1H-indole] | 315
7 | COc1cncc(-c2ccc3[nH]c(-c4ccnc(OC)c4)cc3c2)c1 [Example 14, 5-(5-methoxypyridin-3-yl)-2-(2-methoxypyridin-4-yl)-1H-indole] | 41
8 | COc1cncc(-c2ccc3[nH]c(-c4ccnc(C)n4)cc3c2)c1 [Example 16, 5-(5-methoxypyridin-3-yl)-2-(2-methylpyrimidin-4-yl)-1H-indole] | 666
9 | COc1cncc(-c2ccc3[nH]c(-c4csc(C)n4)cc3c2)c1 [Example 18, 4-(5-(5-methoxypyridin-3-yl)-1H-indol-2-yl)-2-methylthiazole] | 958
10 | COc1cncc(-c2ccc3[nH]c(-c4ccnc(C5CC5)c4)cc3c2)c1 [Example 19, 2-(2-cyclopropylpyridin-4-yl)-5-(5-methoxypyridin-3-yl)-1H-indole] | 231
11 | COc1cncc(-c2ccc3[nH]c(-c4ccnc(N5CC(O)C5)c4)cc3c2)c1 [Example 20, 1-(4-(5-(5-methoxypyridin-3-yl)-1H-indol-2-yl)pyridin-2-yl)azetidin-3-ol] | 158
12 | COc1cncc(-c2ccc3[nH]c(-c4ccnc(N5CCOCC5)c4)cc3c2)c1 [Example 23] | 296
13 | COc1cncc(-c2ccc3[nH]c(-c4cncc(F)c4)cc3c2)c1 [Example 24, 2-(5-fluoropyridin-3-yl)-5-(5-methoxypyridin-3-yl)-1H-indole] | 311
14 | Cc1cc(-c2ccc3[nH]c(-c4ccc(N5CCOCC5)nc4)cc3c2)ccn1 [Example 26] | 221
15 | COc1cncc(-c2ccc3[nH]c(-c4ccc(C5COC5)nc4)cc3c2)c1 [Example 27, 5-(5-methoxypyridin-3-yl)-2-(6-(oxetan-3-yl)pyridin-3-yl)-1H-indole] | 147
16 | Cc1cc(-c2ccc3[nH]c(-c4ccc(N(C)C)nc4)cc3c2)ccn1 [Example 29, N,N-dimethyl-5-(5-(2-methylpyridin-4-yl)-1H-indol-2-yl)pyridin-2-amine] | 206
17 | COc1cncc(-c2cc3cc(-c4ccc(N5CCC56COC6)nc4)[nH]c3cc2Cl)c1 [Example 32, 1-(5-(6-chloro-5-(5-methoxypyridin-3-yl)-1H-indol-2-yl)pyridin-2-yl)-6-oxa-1-azaspiro[3.3]heptane] | 27
18 | COc1cncc(-c2cc3cc(-c4ccnc(N5CCC56COC6)c4)[nH]c3cc2Cl)c1 [Example 33, 1-(4-(6-chloro-5-(5-methoxypyridin-3-yl)-1H-indol-2-yl)pyridin-2-yl)-6-oxa-1-azaspiro[3.3]heptane] | 36
19 | Cc1cc(-c2cc3cc(-c4ccnc(N5CCC56COC6)c4)[nH]c3cc2Cl)ccn1 [Example 34, 1-(4-(6-chloro-5-(2-methylpyridin-4-yl)-1H-indol-2-yl)pyridin-2-yl)-6-oxa-1-azaspiro[3.3]heptane] | 94
20 | COc1cncc(-c2cc3cc(-c4ccc(N5CC(C(=O)O)C5)nc4)[nH]c3cc2Cl)c1 [Example 39, 1-(5-(6-chloro-5-(5-methoxypyridin-3-yl)-1H-indol-2-yl)pyridin-2-yl)azetidine-3-carboxylic acid] | 345

Row | Structure (SMILES) | Ki [nM]
21 | COc1cncc(-c2cc3cc(-c4ccc(N5CCS(=O)(=O)CC5)nc4)[nH]c3cc2Cl)c1 [Example 49, 4-(5-(6-chloro-5-(5-methoxypyridin-3-yl)-1H-indol-2-yl)pyridin-2-yl)thiomorpholine 1,1-dioxide] | 105
22 | COc1cncc(-c2cc3cc(-c4cnc5c(c4)OCCN5C)[nH]c3cc2Cl)c1 [Example 53, 7-(6-chloro-5-(5-methoxypyridin-3-yl)-1H-indol-2-yl)-4-methyl-3,4-dihydro-2H-pyrido[3,2-b][1,4]oxazine] | 23
23 | COc1cncc(-c2cc3cc(-c4ccc(C(O)C5COC5)nc4)[nH]c3cc2Cl)c1 (stereo not shown) [Example 54, (5-(6-chloro-5-(5-methoxypyridin-3-yl)-1H-indol-2-yl)pyridin-2-yl)(oxetan-3-yl)methanol] | 415
24 | COc1cncc(-c2cc3cc(-c4ccc(=O)n(C)c4)[nH]c3cc2Cl)c1 [Example 57, 5-(6-chloro-5-(5-methoxypyridin-3-yl)-1H-indol-2-yl)-1-methylpyridin-2(1H)-one] | 142
25 | COc1cncc(-c2cc(Cl)c3[nH]c(-c4ccc(N5CCOCC5)nc4)cc3c2)c1 [Example 59] | 552
26 | Clc1cncc(-c2cc3cc(-c4ccc(N5CCOCC5)nc4)[nH]c3cc2Cl)c1 [Example 62] | 136
27 | COc1cncc(-c2ccc3[nH]c(-c4ccnc(C)c4)cc3c2Cl)c1 [Example 65] | 122
28 | COc1cncc(-c2cc3cc(-c4ccnc(C)c4)[nH]c3cc2C)c1 [Example 68] | 406
29 | Cc1c(-c2ccncc2)ccc2[nH]c(-c3ccncc3)cc12 [Example 69] | 601
30 | Cc1cc(-c2cc3cc(-c4cncc(OCC5CC5)c4)ccc3[nH]2)ccn1 [Example 81] | 289
31 | COc1cc(-c2ccc3[nH]c(-c4ccnc(C)c4)cc3c2)cnc1OCc1ccccc1 [Example 83] | 657
32 | Clc1cc2[nH]c(-c3ccc(N4CCOCC4)nc3)cc2cc1-c1cncc2sccc12 [Example 89] | 103
33 | Fc1ccc2nccc(-c3cc4cc(-c5ccc(N6CCOCC6)nc5)[nH]c4cc3Cl)c2c1 [Example 90] | 205
34 | COc1ccc2c(-c3cc4cc(-c5ccc(N6CCOCC6)nc5)[nH]c4cc3Cl)cccc2n1 [Example 92] | 770
35 | CN(C)c1cc(-c2cc3cc(-c4ccnc5ccc(F)cc45)ccc3[nH]2)ccn1 [Example 93, 4-(5-(6-fluoroquinolin-4-yl)-1H-indol-2-yl)-N,N-dimethylpyridin-2-amine] | 26
36 | c1ccc2c(-c3ccc4[nH]c(-c5ccncc5)cc4c3)ccnc2c1 [Example 101] | 300
37 | COc1cncc(-c2ccc3[nH]c(-c4ccncn4)cc3c2)c1 [Example 109] | 806
38 | COc1cncc(-c2ccc3c(c2)cc(-c2ccnc(C)c2)n3C(C)C)c1 [Example 111, 1-isopropyl-5-(5-methoxypyridin-3-yl)-2-(2-methylpyridin-4-yl)-1H-indole] | 533
39 | COc1cncc(-c2cc3cc(-c4ccc(N5CCOCC5)nc4)n(C)c3cc2Cl)c1 [Example 112] | 170
40 | COCCn1c(-c2ccncc2)cc2cc(-c3ccncc3)ccc21 [Example 113, 1-(2-methoxyethyl)-2,5-di(pyridin-4-yl)-1H-indole] | 969
